5 compounds from ChEMBL document CHEMBL4312011, “Synthesis and biological evaluation of triterpenoid thiazoles derived from betulonic acid, dihydrobetulonic acid, and ursonic acid” (Eur J Med Chem, 2020) can be followed below.

A short description of data set [1]: Microsomal stability in human liver microsomes assessed as parent compound remaining at 2 uM incubated for 60 mins by RF-MS analysis. It is filed as ADME, Microsome. The settings on record: read-out: Stability. Background: Microsomes from liver hold many membrane-bound enzymes, among them those of drug oxidation.
Data set [2] is described as follows: Microsomal stability in human liver microsomes assessed as parent compound remaining at 2 uM incubated for 30 mins by RF-MS analysis. The settings on record: read-out: Stability. Type of data set: ADME, Microsome.
Data set [3] can be described thus: Microsomal stability in human liver microsomes assessed as parent compound remaining at 2 uM incubated for 15 mins by RF-MS analysis. Type of data set: ADME, Microsome. As to conditions: read-out: Stability.
A short description of data set [4]: Stability in human plasma assessed as parent compound remaining at 2 uM incubated for 60 mins by RF-MS analysis. Type of data set: ADME, cell-free. As to conditions: read-out: Stability.
Data set [5] is described as follows: Stability in human plasma assessed as parent compound remaining at 2 uM incubated for 120 mins by RF-MS analysis. Type of data set: ADME, cell-free. The settings on record: read-out: Stability.
Data set [6] can be described thus: Stability in human plasma assessed as parent compound remaining at 2 uM incubated for 30 mins by RF-MS analysis. It is filed as ADME, cell-free. The settings on record: read-out: Stability.
A short description of data set [7]: Stability in human plasma assessed as parent compound remaining at 2 uM incubated for 15 mins by RF-MS analysis. Type of data set: ADME, cell-free. As to conditions: read-out: Stability.
Data set [8] can be described thus: Chemical stability of compound in PBS buffer assessed as parent compound remaining at 2 uM at pH 7.4 and 37 degC incubated for 120 mins by RF-MS analysis. The settings on record: read-out: Stability. It is filed as physicochemical.
Data set [9] in a line: Chemical stability of compound in PBS buffer assessed as parent compound remaining at 2 uM at pH 7.4 and 37 degC incubated for 60 mins by RF-MS analysis. It is filed as physicochemical. As to conditions: read-out: Stability.
The nature of data set [10]: Chemical stability of compound in PBS buffer assessed as parent compound remaining at 2 uM at pH 7.4 and 37 degC incubated for 15 mins by RF-MS analysis. Type of data set: physicochemical. As to conditions: read-out: Stability.
A short description of data set [11]: Chemical stability of compound in PBS buffer assessed as parent compound remaining at 2 uM at pH 7.4 and 37 degC incubated for 30 mins by RF-MS analysis. It is filed as physicochemical. As to conditions: read-out: Stability.
The test system of another data set is MRC5. As to the kind of experiment: Cytotoxicity against human MRC5 cells incubated for 72 hrs by MTS assay. Type of data set: cell-based. As to conditions: MRC5, 72 h. (Formazan colour is commonly taken as a measure of viable cells.)
The test system of another data set is U2OS. As to the kind of experiment: Cytotoxicity against human U2OS cells incubated for 72 hrs by MTS assay. Type of data set: functional, cell-based.
The next data set deals with BJ. In words: Cytotoxicity against human BJ cells incubated for 72 hrs by MTS assay. It is filed as cell-based.
The test system of a further data set is A549. As to the kind of experiment: Cytotoxicity against human A549 cells incubated for 72 hrs by MTS assay. It is filed as functional, cell-based. As to conditions: A549, 72 h.
The subject of another data set is K562. As to the kind of experiment: Cytotoxicity against human K562 cells incubated for 72 hrs by MTS assay. It is filed as functional, cell-based. As to conditions: K562, 72 h.
Data set [12] can be described thus: Cytotoxicity against human K562-TAX cells incubated for 72 hrs by MTS assay. It is filed as functional, cell-based.
The test system of data set [13] is HCT-116. As to the kind of experiment: Cytotoxicity against p53 knockout human HCT116 cells incubated for 72 hrs by MTS assay. The settings on record: HCT-116, 72 h. It is filed as functional, cell-based.
Data set [14] deals with HCT-116. In words: Cytotoxicity against human HCT116 cells incubated for 72 hrs by MTS assay. It is filed as functional, cell-based. As to conditions: HCT-116, 72 h.
In a further data set the test system is CCRF-CEM. As to the kind of experiment: Cytotoxicity against human CCRF-CEM cells incubated for 72 hrs by MTS assay. Type of data set: functional, cell-based.
Data set [15] can be described thus: Cytotoxicity against human CEM-DNR-bulk cells incubated for 72 hrs by MTS assay. Type of data set: functional, cell-based.

With `CC(C)[C@@H]1CC[C@]2(C(=O)O)CC[C@]3(C)[C@H](CC[C@@H]4[C@@]5(C)CC(SC#N)C(=O)C(C)(C)[C@@H]5CC[C@]43C)[C@@H]12` (stereo partly drawn), the results for the remaining at 1 h, 2 µM in data set [1], in data set [4] and in data set [9] were 1.6%, 56.8% and 90.6%, respectively. Also, the remaining at 0.5 h, 2 µM came out at 35.5% in [2], 94.6% in data set [6] and 99.4% in data set [11]. Besides, the values for the remaining at 0.25 h, 2 µM in [3], in data set [7] and in [10] were 62.9%, 99.5% and 99.5%, respectively. The remaining at 2 h, 2 µM in data set [5] turned out to be 14%; in [8], 69.8%. The concentration for half-maximal inhibition (IC50) with MRC5 stood at 4.6 µM; in the data set with U2OS, 15.1 µM; in the data set on BJ, 5.8 µM; in the data set with A549, 12.5 µM; with K562 it was 3.4 µM; in data set [12], 5.4 µM. Besides, the half-maximal inhibitory concentration (IC50) was 3.4 µM in the data set on HCT-116 [13], 3.5 µM in the data set with HCT-116 [14], 0.9 µM with CCRF-CEM and 14.5 µM in [15].

For `C[C@H]1[C@H](C)CC[C@]2(C(=O)O)CC[C@]3(C)C(=CC[C@@H]4[C@@]5(C)CC(SC#N)C(=O)C(C)(C)[C@@H]5CC[C@]43C)[C@H]12` (stereo partly drawn), the figures for the remaining at 1 h, 2 µM in data set [1], in [4] and in data set [9] were 14.9%, 77.4% and 37.1%, respectively. In addition, the values for the remaining at 0.5 h, 2 µM in data set [2], in [6] and in data set [11] were 54.9%, 100% and 49.3%, respectively. Besides, the remaining at 0.25 h, 2 µM was determined as 61% in data set [3], 99.2% in data set [7] and 90.3% in [10]. Further, the remaining at 2 h, 2 µM in data set [5] worked out at 36.9%; in data set [8], 15.3%. Also, the IC50 with MRC5 was 39.8 µM; in the data set with U2OS it was 33.1 µM; in the data set with BJ, greater than 50 µM; with A549 it was 42.5 µM; in the data set with K562, 34.7 µM; in data set [12], 29 µM. Also, the IC50 with HCT-116 [13] turned out to be 32.3 µM; in the data set with HCT-116 [14], 32.1 µM; in the data set on CCRF-CEM it was 4.7 µM; in data set [15] it was 28.2 µM.

Turning to `C=C(C)[C@@H]1CC[C@]2(C(=O)O)CC[C@]3(C)[C@H](CC[C@@H]4[C@@]5(C)CC(SC#N)C(=O)C(C)(C)[C@@H]5CC[C@]43C)[C@@H]12` (stereo partly drawn), the remaining at 1 h, 2 µM amounted to 56.8% in data set [1], 35.7% in [4] and 54.2% in [9]. Besides, the remaining at 0.5 h, 2 µM turned out to be 86.4% in data set [2], 75.9% in data set [6] and 67.5% in [11]. Besides, the results for the remaining at 0.25 h, 2 µM in data set [3], in data set [7] and in data set [10] were 90.1%, 99% and 99.9%, respectively. Also, the remaining at 2 h, 2 µM in [5] worked out at 7.6%; in data set [8], 69.8%. Further, the IC50 was determined as 18.7 µM in the data set on MRC5; 20.2 µM in the data set on U2OS; 19.8 µM in the data set on BJ; 21.2 µM with A549; 28.5 µM in the data set with K562; 16.6 µM in data set [12]. The concentration for half-maximal inhibition (IC50) stood at 11.9 µM in the data set on HCT-116 [13], 3.3 µM with HCT-116 [14], 2.4 µM in the data set on CCRF-CEM and 6.8 µM in data set [15].

`C[C@H]1[C@H](C)CC[C@]2(C(=O)O)CC[C@]3(C)C(=CC[C@@H]4[C@@]5(C)Cc6sc(N7CCCC7)nc6C(C)(C)[C@@H]5CC[C@]43C)[C@H]12`: the IC50 in the data set with MRC5 is greater than 50 µM; with U2OS, greater than 50 µM; in the data set with BJ, greater than 50 µM; with A549, greater than 50 µM; in the data set with K562 it was greater than 50 µM; in [12], 37.5 µM. Also, the IC50 with HCT-116 [13] was greater than 50 µM; with HCT-116 [14], 39 µM; with CCRF-CEM, 10.7 µM; in data set [15], 39 µM.

On to `C=C(C)[C@@H]1CC[C@]2(C(=O)O)CC[C@]3(C)[C@H](CC[C@@H]4[C@@]5(C)Cc6sc(NCc7ccccc7)nc6C(C)(C)[C@@H]5CC[C@]43C)[C@@H]12`, for which the IC50 was greater than 50 µM in the data set with MRC5; 47.5 µM with U2OS; greater than 50 µM in the data set with BJ; greater than 50 µM with A549; greater than 50 µM in the data set with K562; greater than 50 µM in data set [12]. Moreover, the IC50 with HCT-116 [13] is greater than 50 µM; with HCT-116 [14], greater than 50 µM; in the data set with CCRF-CEM, 3.7 µM; in data set [15] it was greater than 50 µM.

By IC50 is commonly meant the concentration that gives 50% inhibition. The low end stands for greater potency in that assay, the high end for weaker potency in that assay.
